SMILES strings stand for the structures. Marks after values point to notes of the source that are not given here.

We go through 21 molecules from publication PMC2721768 (Purinergic Signalling, 2008).

Data set [1] concerns ectonucleotidase activity in rat vas deferens tissue. As to conditions: at 100 μM; cited from earlier work.
Data set [2] has as its target T1, rat NTPDase1 (Rattus norvegicus, UniProt P97687).
T1 sequence (P97687 1-511): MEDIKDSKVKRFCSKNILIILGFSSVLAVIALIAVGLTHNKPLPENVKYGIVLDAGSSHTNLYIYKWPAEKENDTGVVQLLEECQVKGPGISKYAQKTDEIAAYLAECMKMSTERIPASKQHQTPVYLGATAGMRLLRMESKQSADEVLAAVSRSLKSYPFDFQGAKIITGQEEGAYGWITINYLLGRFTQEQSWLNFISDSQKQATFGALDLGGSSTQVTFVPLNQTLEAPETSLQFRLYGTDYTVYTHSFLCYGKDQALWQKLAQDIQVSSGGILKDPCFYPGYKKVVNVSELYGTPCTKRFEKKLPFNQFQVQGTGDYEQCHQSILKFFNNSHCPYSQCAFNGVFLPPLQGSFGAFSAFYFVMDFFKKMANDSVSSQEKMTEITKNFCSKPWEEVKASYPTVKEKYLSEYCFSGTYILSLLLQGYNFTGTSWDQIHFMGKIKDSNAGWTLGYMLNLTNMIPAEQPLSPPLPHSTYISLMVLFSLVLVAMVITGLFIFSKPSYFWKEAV
Description: Inhibition of rat NTPDase1. Particulars: for percent inhibition at 1 mM NTPDase1 / inhibition of rat NTPDase1 (in words): rat NTPDase1; for percent inhibition at 1 mM NTPDase1: 1 mM compound, ATP 400 μM; for inhibition at 1000 µM: read-out: percent inhibition at 1 mM NTPDase1.

Data set [3] relates to P2Y2. Particulars: read-out: IC50 P2Y2 antagonist; cited from earlier work.
Data set [4] is described as follows: Solubility and stability under the test conditions. The data set is classed as physicochemical. As to conditions: 3 mM in HEPES assay buffer (diluted from 10 mM aqueous solution).
The target of data set [5] is T2, rat NTPDase3 (Rattus norvegicus, UniProt A6I415).
T2 sequence (A6I415 1-529): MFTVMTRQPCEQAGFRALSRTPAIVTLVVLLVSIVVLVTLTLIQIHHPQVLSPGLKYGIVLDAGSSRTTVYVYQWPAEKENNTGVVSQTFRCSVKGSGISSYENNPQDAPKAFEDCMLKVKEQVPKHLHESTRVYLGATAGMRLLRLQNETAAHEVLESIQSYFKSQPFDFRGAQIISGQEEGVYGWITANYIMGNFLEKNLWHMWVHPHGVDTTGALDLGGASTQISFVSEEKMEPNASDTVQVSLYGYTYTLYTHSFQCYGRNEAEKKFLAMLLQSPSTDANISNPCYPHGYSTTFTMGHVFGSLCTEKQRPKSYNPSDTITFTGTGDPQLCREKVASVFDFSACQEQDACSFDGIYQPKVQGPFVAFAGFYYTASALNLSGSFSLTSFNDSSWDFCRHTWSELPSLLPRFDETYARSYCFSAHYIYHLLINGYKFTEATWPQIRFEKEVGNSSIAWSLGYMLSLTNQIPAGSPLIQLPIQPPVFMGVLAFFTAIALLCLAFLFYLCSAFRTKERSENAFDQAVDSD
Description: Inhibition of rat NTPDase3. As to conditions: for inhibition at 1000 µM: read-out: percent inhibition at 1 mM NTPDase3.

The subject of data set [6] is NTPDases1, 2, and 3. As to conditions: rat NTPDase1, 2 and 3.
The target of data set [7] is T3, rat NTPDase2 (Rattus norvegicus, UniProt O35795).
T3 sequence (O35795 1-495): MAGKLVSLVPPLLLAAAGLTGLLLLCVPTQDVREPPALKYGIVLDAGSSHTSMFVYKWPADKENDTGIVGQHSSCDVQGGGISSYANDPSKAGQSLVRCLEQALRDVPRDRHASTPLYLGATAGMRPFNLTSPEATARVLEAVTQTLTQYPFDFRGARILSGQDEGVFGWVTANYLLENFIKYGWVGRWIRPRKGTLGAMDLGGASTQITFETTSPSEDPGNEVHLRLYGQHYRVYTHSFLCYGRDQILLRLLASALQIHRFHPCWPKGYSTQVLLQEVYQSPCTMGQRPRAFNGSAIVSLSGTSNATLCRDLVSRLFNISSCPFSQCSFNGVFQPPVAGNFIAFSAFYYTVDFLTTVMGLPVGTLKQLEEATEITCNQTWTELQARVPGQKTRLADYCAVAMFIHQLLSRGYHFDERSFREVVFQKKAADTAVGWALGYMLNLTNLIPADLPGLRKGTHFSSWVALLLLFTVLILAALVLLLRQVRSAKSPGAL
Description: Inhibition of rat NTPDase2. Particulars: for inhibition at 1000 µM: read-out: percent inhibition at 1 mM NTPDase2.

Setting [8] is: rat NTPDase3, inhibitor 10, 20, and 30 μM.

As to `Nc1c(S(=O)(=O)O)cc(Nc2ccccc2)c2c1C(=O)c1ccccc1C2=O` [Compound 11], the “inhibition of ATP degradation in rat vas deferens tissue” value in data set [1] was “inactive”.
Regarding `Cc1ccccc1Nc1cc(S(=O)(=O)O)c(N)c2c1C(=O)c1ccccc1C2=O` [Compound 12], in data set [2], the “percent inhibition at 1 mM NTPDase1” value is given as “(25%)”.
Consider `Cc1cccc(Nc2cc(S(=O)(=O)O)c(N)c3c2C(=O)c2ccccc2C3=O)c1C` [Compound 14], for which the “percent inhibition at 1 mM NTPDase1” value in data set [2] was “(67%)^b”.
For `COc1ccccc1Nc1cc(S(=O)(=O)O)c(N)c2c1C(=O)c1ccccc1C2=O` [Compound 16], the IC50 – broadly, the concentration that inhibits the measured activity by half – in data set [3] is ~9 µM. Further, in data set [2], the “inhibition of rat NTPDase1 (in words)” value is on record as “weak” and the “percent inhibition at 1 mM NTPDase1” value was “(57%)”.
Regarding `CCOc1ccccc1Nc1cc(S(=O)(=O)O)c(N)c2c1C(=O)c1ccccc1C2=O` [Compound 17], the “percent inhibition at 1 mM NTPDase1” value in data set [2] was “(17%)”.
With `Nc1c(S(=O)(=O)O)cc(Nc2ccc(Cl)cc2)c2c1C(=O)c1ccccc1C2=O` [Compound 18, 1-Amino-2-sulfo-4-p-chloroanilinoanthraquinone], the “time until precipitation (in words)” value in data set [4] is given as “short period of time”. Moreover, the affinity in data set [5], expressed as Ki, was 16.4 ± 1.6 µM. Also, in data set [5] (setting [8]), the “effect on Vmax value of NTPDase3” value is listed as “not affected” and the “mechanism of inhibition (NTPDase3 kinetics, Lineweaver-Burk plot)” value is recorded as “competitive”. In addition, in data set [5] (rat NTPDase3, with increasing concentration of inhibitor (10, 20, 30 μM)), the “effect on Km value of NTPDase3” value was “increased”.
Take `CC(=O)Nc1ccc(Nc2cc(S(=O)(=O)O)c(N)c3c2C(=O)c2ccccc2C3=O)cc1` [Compound 19]: in data set [6], the “NTPDase inhibitory activity (in words)” value is “nearly inactive”. In data set [3], the 50% inhibitory concentration (IC50) is 6 to 12 µM. Moreover, the “percent inhibition at 1 mM NTPDase1” value in data set [2] was “(15%)”.
For the molecule `Nc1c(S(=O)(=O)[O-])cc(Nc2cccc3ccccc23)c2c1C(=O)c1ccccc1C2=O.[Na+]` [Compound 20, Sodium 1-amino-4-(1-naphthylamino)-9,10-dioxo-9,10-dihydroanthracene 2-sulfonate], the “inhibition of rat NTPDase2 (in words)” value in data set [7] (rat NTPDase2) is “not inhibitory”. Moreover, in data set [7], the inhibition (commonly the change of the read-out against control, counted positive when it falls) at 1000 µM was determined as 0%. Also, in data set [2], the “inhibition of rat NTPDase1 (in words)” value is “not inhibitory” and the inhibition at 1000 µM amounted to 0%.
As for `Nc1c(S(=O)(=O)O)cc(Nc2ccc3ccccc3c2)c2c1C(=O)c1ccccc1C2=O` [Compound 21, Sodium 1-amino-4-(2-naphthylamino)-9,10-dioxo-9,10-dihydroanthracene 2-sulfonate], the affinity in data set [5] corresponds to a Ki of 2.22 ± 1.03 µM.
`COc1ccc(CCNc2cc(S(=O)(=O)O)c(N)c3c2C(=O)c2ccccc2C3=O)cc1OC` [Compound 22, Sodium 1-amino-4-(3,4-dimethoxyphenethylamino)-9,10-dioxo-9,10-dihydroanthracene 2-sulfonate]: the Ki (as a rule, a dissociation constant, usually derived from enzyme kinetics or from competition with a known ligand) in data set [5] was 23.4 ± 0.4 µM; in data set [7] it was 54.1 ± 6.8 µM; in data set [2], 173 ± 6 µM.
Turning to `Cc1cc(Nc2ccccc2)c2c(c1N)C(=O)c1ccccc1C2=O` [Compound 23, 1-Amino-2-methyl-4-phenylaminoanthraquinone], the inhibition at 1000 µM in data set [5], in data set [7] and in data set [2] was 0% in each case.
Take `Cc1cccc(Nc2cc(C)c(N)c3c2C(=O)c2ccccc2C3=O)c1` [Compound 24, 1-Amino-2-methyl-4-(3-methylphenylamino)anthraquinone]: the inhibition at 1000 µM in data set [5], in data set [7] and in data set [2] was 0% throughout.
Take `Cc1ccc(Nc2cc(C)c(N)c3c2C(=O)c2ccccc2C3=O)cc1` [Compound 25, 1-Amino-2-methyl-4-(4-methylphenylamino)anthraquinone]: the inhibition at 1000 µM in data set [5], in data set [7] and in data set [2] was 0% throughout.
In the case of `Cc1cc(Nc2cccc3ccccc23)c2c(c1N)C(=O)c1ccccc1C2=O` [Compound 26, 1-Amino-2-methyl-4-(1-naphthylamino)anthraquinone], the inhibition at 1000 µM in data set [5], in data set [7] and in data set [2] was 0% each time.
Regarding `COS(=O)(=O)c1cc(Br)c2c(c1N)C(=O)c1ccccc1C2=O` [Compound 27, 1-Amino-4-bromoanthraquinone-2-sulfonic acid methyl ester], the inhibition at 1000 µM in data set [5], in data set [7] and in data set [2] was 0% each time.
`Nc1c(S(=O)(=O)Oc2ccccc2[N+](=O)[O-])cc(Br)c2c1C(=O)c1ccccc1C2=O` [Compound 28, 1-Amino-4-bromoanthraquinone-2-sulfonic acid 2-nitrophenyl ester]: the inhibition at 1000 µM in data set [5], in data set [7] and in data set [2] was 0% each time.
Consider `Nc1c(S(=O)(=O)Oc2cccc([N+](=O)[O-])c2)cc(Br)c2c1C(=O)c1ccccc1C2=O` [Compound 29, 1-Amino-4-bromoanthraquinone-2-sulfonic acid 3-nitrophenyl ester], for which the inhibition at 1000 µM in data set [5], in data set [7] and in data set [2] was 0% throughout.
`Nc1c(S(=O)(=O)Oc2ccc([N+](=O)[O-])cc2)cc(Br)c2c1C(=O)c1ccccc1C2=O` [Compound 30, 1-Amino-4-bromoanthraquinone-2-sulfonic acid 4-nitrophenyl ester]: the inhibition at 1000 µM in data set [5], in data set [7] and in data set [2] was 0% each time.
On to `Nc1c(S(=O)(=O)Nc2ccccc2)cc(Br)c2c1C(=O)c1ccccc1C2=O` [Compound 31, 1-Amino-4-bromoanthraquinone-2-sulfonic acid phenyl amide], for which the inhibition at 1000 µM in data set [5], in data set [7] and in data set [2] was 0% throughout.
As for `Nc1c(S(=O)(=O)NCc2ccccc2)cc(Br)c2c1C(=O)c1ccccc1C2=O` [Compound 32, 1-Amino-4-bromoanthraquinone-2-sulfonic acid benzylamide], the inhibition at 1000 µM in data set [5], in data set [7] and in data set [2] was 0% each time.
`Nc1c(S(=O)(=O)NCCc2ccccc2)cc(Br)c2c1C(=O)c1ccccc1C2=O` [Compound 33, 1-Amino-4-bromoanthraquinone-2-sulfonic acid phenethylamide]: the inhibition at 1000 µM in data set [5], in data set [7] and in data set [2] was 0% in each case.
